Reference: patent US20050175535A1 (CV Therapeutics, Inc., priority 2000, published 2005)

Tests used:
[1] = biological target: A2A adenosine receptors (PC12 cells) (Rattus norvegicus, UniProt P30543); assay: Rate of decline of agonist-stimulated cAMP in PC12 cells after A2A antagonist SCH58261; conditions: agonist 1 μM, after addition of SCH58261 (20 μM)
[2] = biological target: human A2A adenosine receptors (Homo sapiens, UniProt P29274); assay: Competitive radioligand binding, [3H]ZM241385, HEK-hA2AAdoR membranes
Protocol: Each point represents the mean±SEM of triplicates pooled from at least three experiments.
ZM241385 was purchased from Tocris Cookson Ltd (Langford, Bristol, UK).
Competitive radiolabeling binding assays were performed to determine the binding affinities of the compounds of the invention for the adenosine receptor subtypes, A1, A2A, A2B and A3. Briefly, membrane suspensions, obtained from cells expressing either adenosine receptor subtypes A1, A2A, A2B or A3were incubated for 2 hours at room temperature in 50 mmol/L Tris-HCl buffer (pH 7.4) containing ADA (1U/mL). […] At the end of the incubation, free radioligand was separated from membrane-bound radioligand by filtration through Whatman GF/C glass fiber filters using a Brandel tissue harvester (Gaithersburg, Md.). Triplicate determinations were performed for each concentration of unlabelled compound.

[3] = Coronary blood flow and reversal time, intracoronary infusion in open-chest anesthetized pigs; assay type: in vivo; conditions: 50 ug/kg/min intracoronary
Protocol: The magnitude of the effect of A2A adenosine receptor agonists on coronary dilation and the duration of the effect was determined in pigs weighing 22-27 kg. […] In addition, animals were used in accordance with the guidelines of the University of Kentucky Institutional Animal Care and Use Protocol.
Anesthesia was maintained with additional sodium pentobarbital (1.5-2 mg/kg, i.v.) every 15-20 minutes. Animals were ventilated via a tracheotomy tube using a mixture of room air and 100% O2. Tidal volume, respiratory rate and fraction of O2 in inspired air were adjusted to maintain arterial blood gas (ABG) and pH values. […] Lactate Ringers solution was administered via an ear or femoral vein as an initial bolus of 300-400 ml followed by a continuous infusion at a rate of 5-7 ml/kg/hr. A catheter was inserted into the femoral artery to monitor arterial blood pressure.
The heart was exposed through a median sternotomy and suspended in a pericardial cradle. Left ventricular pressure (LVP) was measured with a 5F high fidelity pressure sensitive tip transducer (Millar Instruments, Houston, Tex.) placed in the left ventricular cavity via an apical incision and secured with a purse string suture. A segment of the left anterior descending coronary artery (LAD), proximal to the origin of the first diagonal branch, was dissected free of surrounding tissue. A transit time perivascular flow probe (Transonic Systems Inc., Ithaca, N.Y.) was placed around this segment to measure CBF. Proximal to the flow probe, a 24-gauge modified angiocatheter was inserted for intracoronary infusions. […] The A2A adenosine receptors agonists were administered intracoronary.
Relationship between affinity of various agonists for A2A adenosine receptor and the reversal time of their effect to increase coronary conductance was determined in pigs. Each experiment was preceded by a 30-minute stabilization period following the completion of all instrumentation of the animal. Baseline hemodynamic data were then recorded and an intracoronary infusion of an A2A Adenosine receptors agonist was initiated. Each infusion was maintained for 4-5 minutes to allow LAD CBF to reach a steady-state, after which the infusion was terminated. The times to recovery of CBF by 50% (t0.5) and 90% (t0.9) of the difference from peak effect to baseline CBF were recorded. Ten to 15 minutes after CBF returned to pre-drug values a second infusion with a different agonist was started. […] Hemodynamic measurements were made prior to and following the initiation of the phenylephrine infusion. The phenylephrine infusion rate was adjusted during and following the infusions of the adenosine receptor agonists to maintain arterial blood pressure within 5 mmHg of pre-infusion values. The effect of a maximum of three different agonists was determined in each experiment.

[4] = Coronary blood flow and hemodynamics in conscious dogs; assay type: in vivo; conditions: for ED50: Canis lupus familiaris, read-out: ED50, increase in mean CBF
Protocol: Ten mongrel dogs (weighing 23-27 kg) were premedicated with Acepromazine (0.3 mg/kg im) and anesthetized with sodium pentobarbital (25 mg/kg) and then intubated and ventilated with room air. A thoracotomy was performed in the left fifth intercostal space using sterile surgical techniques. A Tygon catheter (Cardiovascular Instruments, Inc.) was placed in the descending thoracic aorta for the measurements of blood pressure. A solid-state pressure gauge (P6.5, Konisberg Instrument, Inc) was placed in the apex of the left ventricle for the measurement of the left ventricular systolic pressure (LVSP) and calculation of first derivative of left ventricular pressure (LV dP/dt). A Doppler transducer (Craig Hartley) was placed on the left circumflex coronary artery for measurement of CBF. An hydraulic coronary occluder (In Vivo Metric, Inc) was implanted in 4 dogs around the left circumflex coronary artery. The chest was closed in layers and the catheters and wires were run subcutaneously and exited in the interscapular area. The dogs were allowed 10 to 14 days to recover fully from the surgery and were trained to lie on a laboratory table. The protocols were approved by the Institutional Animal Care and Use Committee of New York Medical College and conform to the “Guiding Principles for the use and Care of Laboratory Animals” of the National Institute of Health and the American Physiology Society.
Arterial pressure was measured by connecting the previously implanted catheter to a strain-gauge transducer (P231D, Statham) and mean arterial pressure (MAP) was derived using 2-Hz low-pass filter. […] Left circumflex CBF was measured using a pulsed Doppler flowmeter (System 6, Triton technology), and mean CBF was derived using a 2-Hz low-pass filter. Mean CR was calculated as the quotient of MAP and CBF. Heart rate was monitored from the pressure pulse interval using a cardiotachometer (Beckman Instruments). The lead-2 of the electrocardiogram was recorded during the experiments in order to examine the alterations in the AV nodal conduction (PR interval). All signals were recorded on a direct-writing oscillograph (Gould 2800).
Hemodynamics were measured before, during and after each dose. Following each dose hemodynamics were allowed to return to baseline before the administration of the next dose. Changes in heart rate, blood pressure, CBF, and ECG were recorded.
Hemodynamic results are expressed as mean±SEM. […] Because no statistical differences were found among the baseline values between each dose for each parameter measure, the first baseline registered during each experiment was used as the control value.

Chain of human A2A adenosine receptors (P29274 whole entry, the tested form may be a part): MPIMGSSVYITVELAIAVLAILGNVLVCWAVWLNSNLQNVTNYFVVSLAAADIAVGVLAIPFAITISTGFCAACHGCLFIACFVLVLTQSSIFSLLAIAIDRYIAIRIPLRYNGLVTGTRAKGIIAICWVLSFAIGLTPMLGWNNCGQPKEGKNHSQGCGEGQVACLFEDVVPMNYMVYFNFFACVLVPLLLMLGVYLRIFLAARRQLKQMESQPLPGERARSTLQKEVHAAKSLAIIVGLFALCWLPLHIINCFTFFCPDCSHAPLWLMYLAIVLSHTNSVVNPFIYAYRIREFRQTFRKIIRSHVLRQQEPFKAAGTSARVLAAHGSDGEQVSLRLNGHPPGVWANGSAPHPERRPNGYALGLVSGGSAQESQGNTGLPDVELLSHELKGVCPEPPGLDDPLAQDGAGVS
Chain of A2A adenosine receptors (PC12 cells) (P30543 whole entry): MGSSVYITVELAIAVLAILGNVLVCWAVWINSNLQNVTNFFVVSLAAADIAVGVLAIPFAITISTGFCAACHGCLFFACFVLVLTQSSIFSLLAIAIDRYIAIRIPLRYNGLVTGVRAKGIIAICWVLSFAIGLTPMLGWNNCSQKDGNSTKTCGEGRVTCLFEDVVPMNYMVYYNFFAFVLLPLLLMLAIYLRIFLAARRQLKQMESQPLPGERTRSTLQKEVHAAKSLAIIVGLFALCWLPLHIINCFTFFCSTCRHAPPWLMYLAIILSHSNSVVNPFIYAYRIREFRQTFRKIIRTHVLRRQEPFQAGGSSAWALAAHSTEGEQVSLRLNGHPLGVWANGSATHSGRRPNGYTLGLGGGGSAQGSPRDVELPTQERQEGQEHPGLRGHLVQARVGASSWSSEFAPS

| t0.5, rate of decline of cAMP accumulated [1] [min] | Ki ([2]; binding affinity in HEK cells expressing human A2A receptors (Ki)) [µM] | Ki ([2]; pKi ± SEM, HEK-hA2AAdoR, [3H]ZM241385) [µM] | Compound | CBF (fold-increase) [3] [fold] | t0.5 reversal of increase in coronary blood flow [3] [min] | t0.9 reversal of increase in coronary blood flow [3] [min] | maximal decrease in CR ([4]; 2.5 μg/kg iv, conscious dogs) [%] | increase in dP/dt ([4]; 2.5 μg/kg, conscious dogs) [%] | maximal decrease in CR ([4]; 5 μg/kg iv, conscious dogs) [%] | ED50 ([4]; IV bolus, conscious dogs) [mg/kg] | maximal increase in mean CBF from baseline ([4]; IV bolus, conscious dogs, baseline 45±3 ml/min) [mL/min] | changes in LVSP ([4]; increasing doses, conscious dogs (data not shown)) | increase in LVSP ([4]; 67 μg/kg, conscious dogs) [%] | increase in LVSP ([4]; 134 μg/kg, conscious dogs) [%] | maximal decrease in CR ([4]; 267 μg/kg iv, conscious dogs) [%] | increase in LVSP ([4]; 267 μg/kg, conscious dogs) [%] | increase in dP/dt ([4]; 267 μg/kg, conscious dogs) [%] |
| --- | --- | --- | --- | --- | --- | --- | --- | --- | --- | --- | --- | --- | --- | --- | --- | --- | --- |
| 1.9 ± 0.1 | 2.9 | 2.88 | CCCCCn1cc(-c2nc(N)c3ncn(C4O[C@@H](CO)[C@H](O)[C@@H]4O)c3n2)cn1 (stereo partly drawn) [CVT-3033] | 3.33 ± 0.58 | 3.1 ± 0.9 | 12.0 ± 1.0 | – | – | – | – | – | – | – | – | – | – | – |
| – | – | – | CNC(=O)c1cnn(-c2nc(N)c3ncn(C4O[C@@H](CO)[C@H](O)[C@@H]4O)c3n2)c1 (stereo partly drawn) [CVT-3146] | – | – | – | 73±2 | 39±7 | 75±2 | 0.00034 ± 8e-05 | 154 ± 16 | did not cause significant changes in LVSP | – | – | – | – | – |
| – | – | – | Nc1ncnc2c1ncn2[C@@H]1O[C@H](CO)[C@@H](O)[C@H]1O [Adenosine, adenosine, reference compound] | – | – | – | – | – | – | 0.051 ± 0.015 | – | – | 12±3 | 12±3 | 73±1 | 18±6 | 29±7 |
